US20240391902A1, “Crystalline Form of Compound” (Shenzhen Forward Pharmaceuticals Co., Limited, priority 2020, published 2024)

Tests used:
[1] = Dynamic solubility test; format: physicochemical; conditions: room temperature, feeding concentration 10 mg/mL, listed as compound of formula (I)
Experimental: Determination method: According to a feeding concentration of 10 mg/mL, about 50 mg of the sample were weighed and added to 5 mL of the corresponding medium, and the sample was dissolved by rotating at […] at room temperature.

[2] = test system: EGFR activating mutation (exon 19 deletion activating mutation, L858R activating mutation, T790M drug resistance mutation and exon 20 insertion mutation); conditions: disclosed in CN105461695B; cited from earlier work

C=CC(=O)Nc1cc(Nc2ncnc(-c3cn(C)c4ccccc34)n2)c(OC)cc1N(C)CCN(C)C [Example 21]
dynamic solubility ([1]; SGF, 0.5 h): <1000 µg/mL
dynamic solubility ([1]; SGF, 1 h): <1000 µg/mL
dynamic solubility ([1]; SGF, 2 h): <1000 µg/mL
dynamic solubility ([1]; SGF, 4 h): <1000 µg/mL
dynamic solubility ([1]; SGF, 24 h): <1000 µg/mL
dynamic solubility ([1]; water, 0.5 h): <1000 µg/mL
dynamic solubility ([1]; water, 1 h): <1000 µg/mL
dynamic solubility ([1]; water, 2 h): <1000 µg/mL
dynamic solubility ([1]; water, 4 h): <1000 µg/mL
dynamic solubility ([1]; water, 24 h): <1000 µg/mL
inhibitory activity against EGFR activating mutation compared with wild-type EGFR (WT EGFR) [2]: significantly higher
